Assay results reported in US12227517B2, “Pyridazinyl-thiazolecarboxamide compound” (Astellas Pharma Inc., priority 2019, dated 2025).
Counter-ions that a name gives are not always drawn.

Assays:
[1] = target: human recombinant DGK ξ (Homo sapiens (Human), UniProt Q13574); assay: Evaluation of DGK ξ inhibitory effect (ADP-Glo Kinase Assay); format: biochemical
Method: Test Example 1: Evaluation of DGK ξ Inhibitory Effect
The inhibitory effect of a test compound on human recombinant DGK ξ (Carna Biosciences, Inc., 12-410-20N) was examined by the following method in which detection is performed with ADP-Glo™ Kinase Assay (Promega Corporation).
To a 384-well plate (Greiner Bio-One Co., Ltd.), 3 μL of a […] dissolved in an assay buffer (40 mM Tris-HCl pH 7.5, 10 mM MgCl2, 1 mM dithiothreitol (DTT) and 0.1 mg/mL bovine serum albumin (BSA)) (90 ng/mL) was added, and 3 μL of the test compound diluted with the same assay buffer was added so that an intended final concentration was obtained. The mixture was left standing at room temperature for 15 minutes, 3 μL of a substrate (150 μM 1-oleoyl-2-acetyl-sn-glycerol (Sigma-Aldrich Co. LLC.), 480 μM phosphatidylserine (Avanti Polar Lipids, Inc.) and 150 μM UltraPure-ATP (attached to ADP-Glo)) was then added, and the mixture was left standing at room temperature for 30 minutes to react. Thereafter, 3 μL of an ADP-Glo Reagent was added, and the mixture was left standing at room temperature for 40 minutes to stop the enzyme reaction. Further, 6 μL of a Kinase-Detection Reagent was added, the mixture was left standing at room temperature for 30 minutes, and the luminescence was then measured using ARVO X3 (PerkinElmer, Inc.). The half maximal inhibitory concentration (IC50) was calculated by Sigmoid-Emax model non-linear regression analysis, where the signal value in solvent treatment was set to 0% inhibition and the signal value without addition of the DGK ξ enzyme was set to 100% inhibition. […] In the table, Ex represents the number of each Example described below. Also, in the table, compound C (cpd. C) represents the test compound of the Example 199 described in the international publication WO 2008/054702.

[2] = tested on: Jurkat E6.1 cells; assay: Evaluation of IL-2 production in human T cell leukemia cell line Jurkat E6.1 (TCR stimulation anti-CD3/anti-CD28); format: cell-based; settings: concentration at which IL-2 increased to 10 times the solvent control, Jurkat E6.1, anti-CD3/anti-CD28, 24 hours, read-out: EC10fold
Method: Test Example 2: Evaluation of IL-2 Production in Human T Cell Leukemia Cell Line Jurkat E6.1
The effect of the test compound on the IL-2 production by T cell receptor (TCR) stimulation (anti-CD3/anti-CD28) in Jurkat E6.1 cells (ECACC, 88042803) was evaluated.
A 5 μg/mL anti-CD3 antibody (eBioscience, Inc., OKT3 clone) diluted with phosphate buffer saline (PBS) was added to a 96-well plate (Iwaki & Co., Ltd.) at 50 μL/well, and left standing at 4° C. for 12 hours or more to provide an anti-CD3 antibody-coated plate in advance. When the plate was used for experiments, the plate was washed with 200 μL of PBS once, an anti-CD28 antibody (eBioscience, Inc., 28.2 clone) diluted to a concentration of […] with a culture medium (RPMI1640 (Sigma-Aldrich Co. LLC.) containing 10% fetal bovine serum (Hyclone Laboratories, Inc.)) was then added at 10 μL/well, and the plate was used for assay as a culture plate for TCR stimulation.
Subsequently, the test compound was mixed with Jurkat E6.1 cells in such a manner that an intended final concentration was obtained, and the mixture was plated at 90 μL/well so that the number of cells per well was 1×10^5 (that is, finally the culture was performed at 1×10^5 cells/100 μL/well). For culture cell conditions, the culture was performed at 37° C. in the presence of 5% CO2 using RPMI1640 medium containing 10% fatal bovine serum.
After 24 hours, the culture supernatant was collected, and IL-2 was quantitatively determined using AlphaLISA human IL2 Immunoassay Research Kit (PerkinElmer, Inc.). The IL-2 measurement was performed under Alpha Screen standard setting conditions (the fluorescence intensity at 570 nm was measured with an excitation wavelength of 680 nm) using EnVision 2104-0010 and EnVision 2104-0020 (PerkinElmer, Inc.). The IL-2 quantitative value of the solvent treatment control was set to 1, and the test compound concentration at which the IL-2 quantitative value of the test compound treatment sample increased to 10 times the IL-2 quantitative value of the control (EC10fold) was calculated by inverse estimation with the aid of Sigmoid-Emax model non-linear regression analysis. […] In the table, Ex represents the number of each Example described below.

[3] = tested on: MC38 cells; assay: Antitumor effect in syngeneic mouse model bearing mouse colon adenocarcinoma cell line MC38; format: in vivo; settings: relative tumor growth inhibition, MC38, C57BL/6J mice, oral, twice a day day 1-10 and once on day 11
Method: Test Example 3: Evaluation of Antitumor Effect in Syngeneic Mouse Model Bearing Mouse Colon Adenocarcinoma Cell Line MC38
A cell suspension liquid prepared by suspending MC38 cells (supplied from National Cancer Institute) in PBS at 4.0×10^6 cells/mL was subcutaneously inoculated into 6-week-old female mice (C57BL/6J from Charles River Laboratories Japan, Inc.) in a volume of 50 μL. 4 days after the inoculation, the mice were grouped in such a manner that there was substantially no difference in tumor volume between groups, and administration of the test compound was started. The test was conducted with a solvent group and a test compound administration group each having 10 mice. 0.5% methylcellulose (Shin-Etsu Chemical Co., Ltd.) was orally administered to the solvent group, and 0.5% methylcellulose mixed with the test compound was orally administered to the test compound administration group. The administration was performed twice a day from day 1 to day 10 and once a day on day 11, and the tumor diameter and the body weight were measured twice a week. The following expression was used for calculation of the tumor volume. [tumor volume (mm^3)]=[tumor major diameter (mm)]×[tumor minor diameter (mm)]^2×0.5
The relative tumor growth inhibition (%) of the test compound was calculated, where the tumor volume of the test compound administration group immediately before the start of administration was set to 100% inhibition, and the tumor volume of the solvent group on the last day of administration was set to 0% inhibition. […] In the table, Ex represents the number of each Example described below.

[4] = tested on: B16-F1 cells; assay: Antitumor effect in syngeneic mouse model bearing mouse melanoma cell line B16-F1; format: in vivo; settings: relative tumor growth inhibition, B16-F1, oral
Method: Test Example 4: Evaluation of Antitumor Effect in Syngeneic Mouse Model Bearing Mouse Melanoma Cell Line B16-F1
A cell suspension liquid prepared by suspending B16-F1 cells (ATCC, CRL-6323) in PBS at 2.0×10^6 cells/mL or 1.0×10^7 cells/mL was subcutaneously inoculated into 5-week-old female mice (C57BL/6J from Charles River Laboratories Japan, Inc.) in a volume of 50 μL. 5 days after the inoculation, the mice were grouped in such a manner that there was substantially no difference in tumor volume between groups, and administration of the test compound was started. The test was conducted with a solvent group and a test compound administration group each having 10 mice. 0.5% methylcellulose was orally administered to the solvent group, and 0.5% methylcellulose mixed with the test compound was orally administered to the test compound administration group. The administration was performed according to the regimen described in Table 4, and the tumor diameter and the body weight were measured twice a week. The following expression was used for calculation of the tumor volume. [tumor volume (mm^3)]=[tumor major diameter (mm)]×[tumor minor diameter (mm)]^2×0.5
The relative tumor growth inhibition (%) of the test compound was calculated, where the tumor volume of the test compound administration group immediately before the start of administration was set to 100% inhibition, and the tumor volume of the solvent group on the day after the last administration was set to 0% inhibition. […] In the table, Ex represents the number of each Example described below.

[5] = 0.1 mg/kg, 1/day, 8 days, 1 × 10^5 cells inoculated

Chain of human recombinant DGK ξ (Q13574 whole entry): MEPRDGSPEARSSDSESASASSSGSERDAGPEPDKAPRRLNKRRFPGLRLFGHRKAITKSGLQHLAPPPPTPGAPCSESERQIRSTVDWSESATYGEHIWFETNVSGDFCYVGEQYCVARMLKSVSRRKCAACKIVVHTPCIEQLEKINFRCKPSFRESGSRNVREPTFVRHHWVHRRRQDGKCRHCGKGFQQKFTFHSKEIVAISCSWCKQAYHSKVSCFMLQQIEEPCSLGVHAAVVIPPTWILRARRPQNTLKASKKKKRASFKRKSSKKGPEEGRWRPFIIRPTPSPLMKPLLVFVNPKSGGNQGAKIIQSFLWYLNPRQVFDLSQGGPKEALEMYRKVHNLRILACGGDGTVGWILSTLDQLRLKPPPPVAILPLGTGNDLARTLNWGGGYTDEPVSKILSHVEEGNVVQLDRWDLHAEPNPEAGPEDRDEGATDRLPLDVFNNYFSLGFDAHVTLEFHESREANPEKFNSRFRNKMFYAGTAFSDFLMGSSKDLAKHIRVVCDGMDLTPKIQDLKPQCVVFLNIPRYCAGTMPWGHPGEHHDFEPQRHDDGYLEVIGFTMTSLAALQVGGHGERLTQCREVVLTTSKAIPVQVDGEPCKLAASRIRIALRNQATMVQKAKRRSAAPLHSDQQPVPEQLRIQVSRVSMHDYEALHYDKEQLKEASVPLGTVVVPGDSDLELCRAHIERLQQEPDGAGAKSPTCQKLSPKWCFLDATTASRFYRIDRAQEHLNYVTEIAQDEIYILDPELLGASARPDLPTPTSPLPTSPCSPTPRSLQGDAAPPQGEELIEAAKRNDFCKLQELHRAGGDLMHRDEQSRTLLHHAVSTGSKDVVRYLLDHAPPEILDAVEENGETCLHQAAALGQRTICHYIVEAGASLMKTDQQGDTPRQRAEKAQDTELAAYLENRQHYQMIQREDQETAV

| SMILES | IC50 [1] | EC50 [2] | Antitumor effect ([3]; 5 mg/kg) | also measured |
| --- | --- | --- | --- | --- |
| CNC[C@@H]1CCCN(c2c(NC(=O)c3csc(-c4ccnnc4)n3)ccc(Oc3ccccc3F)c2C(F)(F)F)C1.Cl [Example 10] | 8 nM | 173 nM |  | Antitumor effect ([3]; 4.7 mg/kg): 60% Inhibition; Antitumor effect [4, 5]: 42% Inhibition |
| NC[C@@H]1CCCN(c2c(NC(=O)c3csc(-c4ccnnc4)n3)ccc(Oc3cccc(F)c3)c2C(F)(F)F)C1 [Example 11] | 19 nM | 32 nM | 63% Inhibition |  |
| NC[C@@H]1CCCN(c2c(NC(=O)c3csc(-c4ccnnc4)n3)ccc(Oc3ccccc3F)c2C(F)(F)F)C1 [Example 33] | 5 nM | 9 nM | 36% Inhibition |  |
| NC[C@H]1CCCN1c1c(NC(=O)c2csc(-c3ccnnc3)n2)ccc(Oc2ccccc2)c1C(F)(F)F [Example 34] | 12 nM | 30 nM | 55% Inhibition | Antitumor effect ([4]; 1.5 mg/kg, 2/day, 10 days, 5 × 10^5 cells inoculated): 48% Inhibition |
| NC[C@@H]1CCCN(c2c(NC(=O)c3csc(-c4ccnnc4)n3)ccc(Oc3cccc(F)c3)c2C(F)(F)F)C1 [Example 85] | 15 nM |  |  |  |
| NC[C@@H]1CCCN(c2c(NC(=O)c3csc(-c4ccnnc4)n3)ccc(Oc3ccccc3F)c2C(F)(F)F)C1 [Example 86] | 3 nM |  |  |  |
| CNC1(C(N)=O)CCN(c2ccccc2NC(=O)c2csc(-c3ccnnc3)n2)CC1 [cpd. C, reference compound] | > 2000 nM |  |  |  |

Continued, in another order:

| IC50 [1] | EC50 [2] | SMILES | Antitumor effect ([3]; 5 mg/kg) | also measured |
| --- | --- | --- | --- | --- |
| 8 nM | 18 nM | NC[C@@H]1CCCN(c2c(NC(=O)c3csc(-c4ccnnc4)n3)ccc(Oc3ccccc3)c2C(F)(F)F)C1 [Example 9, N-{2-[(3S)-3-(aminomethyl)piperidin-1-yl]-4-phenoxy-3-(trifluoromethyl)phenyl}-2-(pyridazin-4-yl)-1,3-thiazole-4-carboxamide] | 64% Inhibition | Antitumor effect ([4]; 0.5 mg/kg, 2/day, 10 days, 5 × 10^5 cells inoculated): 36% Inhibition |
| 2 nM | 36 nM | COCCN1CCC2(CC1)CN(c1c(NC(=O)c3csc(-c4ccnnc4)n3)ccc(Oc3ccccc3)c1C(F)(F)F)CCO2 [Example 59, N-{2-[9-(2-methoxyethyl)-1-oxa-4,9-diazaspiro[5.5]undecan-4-yl]-4-phenoxy-3-(trifluoromethyl)phenyl}-2-(pyridazin-4-yl)-1,3-thiazole-4-carboxamide dihydrochloride] |  | Antitumor effect [4, 5]: 46% Inhibition |
| 5 nM | 27 nM | N[C@@H]1CCN2CCN(c3c(NC(=O)c4csc(-c5ccnnc5)n4)ccc(Oc4ccccc4)c3C(F)(F)F)C[C@@H]12 [Example 78, N-{2-[(8R,8aS)-8-aminohexahydropyrrolo[1,2-a]pyrazine-2(1H)-yl]-4-phenoxy-3-(trifluoromethyl)phenyl}-2-(pyridazin-4-yl)-1,3-thiazole-4-carboxamide] |  | Antitumor effect ([4]; 0.3 mg/kg, 1/day, 10 days, 1 × 10^5 cells inoculated): 30% Inhibition |
| 0.7 nM | 5 nM | CN(C)[C@@H]1CCN2CCN(c3c(NC(=O)c4csc(-c5ccnnc5)n4)ccc(Oc4ccccc4)c3C(F)(F)F)C[C@@H]12 [Example 80] |  | Antitumor effect ([4]; 0.03 mg/kg, 1/day, 10 days, 1 × 10^5 cells inoculated): 30% Inhibition |
| 20 nM |  | NC[C@H]1CCCN1c1c(NC(=O)c2csc(-c3ccnnc3)n2)ccc(Oc2ccccc2)c1C(F)(F)F [Example 87] |  |  |
